Legend:
[1] = tested on: chaperone BiP; test: BiP protein levels (Western blot); format: cell-based, human; settings: UVB-irradiated cells, SA -/+ EX-527 1 μM
Experimental: Figure 5 (A) Western-blot of BiP proteins levels in UVB or non UVB irradiated cells treated with SA at the indicated concentrations in presence or absence of EX-527 1 μM. (B) Quantification of n=3 experiments as (A). The levels of BiP are normalized by the loading control (histone H3) and represented related to the conditions in UVB irradiated cells in absence of SA and EX-527. Student T-test, *p<0.05. (C) Percentage of SA-β-Gal in assays performed as in Figure 3C. (D) Levels of spliced and unspliced XBP1 mRNA monitored by qPCR analysis in cells treated in the indicated conditions in presence or absence of SA and/or EX-527. The levels were normalized by internal controls and represented in each case related to the conditions in UVB irradiated cells in absence of SA and EX-527. Student T-test, *p<0.05, **p<0.01, ***p<0.001. (E) LC3-II protein levels in experiments like in (A). The levels of LC3-II are normalized by the loading control (tubulin) and represented related to the conditions in UVB irradiated cells in absence of SA and EX-527. Student T-test, *p<0.05. (F) Proposed Model for the effect of SA on senescence through SIRT1. Other possible unexplored connections between SA and senescence are indicated by blue broken lines.
Protein levels were analyzed as previously described. Cells were directly lysed in 1x Laemmli Buffer (Bio-Rad, USA), incubated at 95° C and centrifuged. […]

[2] = tested on: p21; test: p21 mRNA levels (qPCR); format: cell-based, human; settings: UVB-irradiated HDF, SA treatment
Experimental: RNA was extracted from cell pellets using the Total RNA Purification Kit (Norgen, Canada), according to the manufacturer’s protocol. […] The primers and their respective sequences are listed in Supplementary Table 1. qPCR protocol included one step at 95° C for 30 s, 40 cycles at 95° C for 10s, and 60° C for 1min. The results were analyzed with Bio-Rad CFX Manager software. BACT was used as a housekeeping gene to normalize gene expression. page 6: Supplementary Figure 6. Quantification (n=3) of the percentage of cells in each cell cycle phase and poliploydies in (A) non-irradiated cells treated with Shikimic acid at the indicated doses and (B) UVB-irradiated cells treated with Shikimic acid at the indicated doses, following the senescence induction method described in Figure 2A. (C) Relative p21 mRNA levels (n=3) in UVB-irradiated cells treated with Shikimic acid at the indicated doses, following the senescence induction method described in Figure 2A. (D) Second (PC-2) and third (PC-3) principal components in the fingerprint region (1800–950 cm−1) from the samples mentioned in Figure 4G. Student T-test, *p<0.05, **p<0.01, ***p<0.001. www.aging-us.com 6 AGING (1 picture or pasted object on this page, not shown here)

O=C(O)C1=C[C@@H](O)[C@@H](O)[C@H](O)C1 [Shikimic acid]
BiP protein levels [1]: induced upregulation of chaperone BiP | p21 mRNA levels [2]: did not observe any clear effect
